In ChEMBL document CHEMBL1133897, “Synthesis, antimalarial activity and inhibition of haem detoxification of novel bisquinolines” (Bioorg Med Chem Lett, 2001) one finds IC50 data, which are given here for five compounds.

Test [1] concerns the target T1, Histidine-rich protein PFHRP-II (Plasmodium falciparum, UniProt P05227).
T1 sequence (P05227 whole entry): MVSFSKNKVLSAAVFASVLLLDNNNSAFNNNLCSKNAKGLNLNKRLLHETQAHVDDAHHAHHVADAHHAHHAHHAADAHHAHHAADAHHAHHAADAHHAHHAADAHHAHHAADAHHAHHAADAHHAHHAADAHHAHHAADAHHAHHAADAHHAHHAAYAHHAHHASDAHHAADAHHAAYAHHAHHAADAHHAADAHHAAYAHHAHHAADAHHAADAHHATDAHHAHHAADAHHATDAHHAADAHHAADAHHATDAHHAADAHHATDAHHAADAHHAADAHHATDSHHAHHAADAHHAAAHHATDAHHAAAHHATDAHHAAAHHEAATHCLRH
In words: Inhibition of beta-hematin formation in Plasmodium falciparum. It counts as functional.

Test [2] deals with Plasmodium falciparum. In words: Growth inhibition of chloroquine-resistant Plasmodium falciparum KI. It counts as functional, organism-based.
Test [3] relates to Plasmodium falciparum. In words: Growth inhibition of chloroquine-sensitive Plasmodium falciparum D10. It counts as functional, organism-based.
Test [4] deals with Plasmodium falciparum. In words: Inhibition of hydrogen peroxide-mediated haem detoxification in Plasmodium falciparum. Type of test: functional, organism-based.

Molecules are shown by their SMILES.

On to `CCN(CC)CCCC(C)Nc1cc(CCCCCCCCc2cc(NC(C)CCCN(CC)CC)c3ccccc3n2)nc2ccccc12` (stereo unspecified), for which the IC50 (as a rule, the concentration needed to halve the response being measured) worked out at 97000 nM in test [1], 25 nM with Plasmodium falciparum [2], 123 nM with Plasmodium falciparum [3] and 81000 nM in the test on Plasmodium falciparum [4].
`CCN(CC)CCCC(C)Nc1cc(CCCCCCCCCCc2cc(NC(C)CCCN(CC)CC)c3ccccc3n2)nc2ccccc12` (stereo unspecified): the IC50 was 94000 nM in test [1], 16 nM in the test on Plasmodium falciparum [2], 154 nM in the test with Plasmodium falciparum [3] and 80000 nM with Plasmodium falciparum [4].
Turning to `CCC1CN2CCC1CC2C(O)c1ccnc2c(CNC(=O)CCCCCCCCC(=O)Nc3cccc4c(C(O)C5CC6CCN5CC6CC)ccnc34)cccc12` (stereo unspecified), the IC50 in the test with Plasmodium falciparum [2] came out at 20 nM; in the test on Plasmodium falciparum [3], 50 nM.
As to `OC(c1cc(C(F)(F)F)nc2c(C(F)(F)F)cccc12)C1CCCCN1` (stereo unspecified) [MEFLOQUINE], the IC50 with Plasmodium falciparum [3] was 90 nM; in the test with Plasmodium falciparum [4], 30000 nM.
On to `CCN(CC)CCCC(C)Nc1cc(CCCCCCCCCCCCc2cc(NC(C)CCCN(CC)CC)c3ccccc3n2)nc2ccccc12` (stereo unspecified), for which the IC50 stood at 86000 nM in test [1], 17 nM in the test with Plasmodium falciparum [2], 43 nM with Plasmodium falciparum [3] and 37000 nM with Plasmodium falciparum [4].
